Reference: patent US6204293A, “Inhibitors of protein isoprenyl transferases” (University of Pittsburgh, priority 1998, dated 2001)
Structures can show the parent of a compound that is named as a salt. Where two headings read alike, the source gives them in different places. Blank lines part the entries; values can stand above or below the compound they belong to.

Target: T1, Rat brain protein farnesyltransferase (Rattus norvegicus, UniProt Q02293+Q04631)
T1 construct: Rat brain protein farnesyltransferase activity is measured; from tissue; host or cells: rat brain
T1 sequence (Q02293 whole entry, one chain of several): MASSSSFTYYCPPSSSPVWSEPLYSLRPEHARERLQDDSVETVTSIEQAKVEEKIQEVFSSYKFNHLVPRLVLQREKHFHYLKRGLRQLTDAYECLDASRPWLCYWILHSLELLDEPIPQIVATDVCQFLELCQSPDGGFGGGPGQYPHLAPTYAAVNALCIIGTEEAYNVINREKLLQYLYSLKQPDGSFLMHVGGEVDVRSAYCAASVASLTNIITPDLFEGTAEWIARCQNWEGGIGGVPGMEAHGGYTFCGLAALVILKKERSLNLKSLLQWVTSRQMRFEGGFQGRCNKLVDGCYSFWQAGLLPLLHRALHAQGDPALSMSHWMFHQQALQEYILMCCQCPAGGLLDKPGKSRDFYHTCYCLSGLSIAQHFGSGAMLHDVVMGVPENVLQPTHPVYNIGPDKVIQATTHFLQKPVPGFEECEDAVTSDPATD
Test: % inhibition of farnesylation, scintillation proximity assay with biotin-K Ras B fragment
Assay type: biochemical
Settings: for inhibition at 0.01 µM: read-out: % inhibition at 0.01 μM (**); for % inhibition at 1 × 10^-5 M: Table 1; for inhibition at 1 µM: read-out: % inhibition at 1 × 10^-6 M; for % inhibition at 1 × 10^-8 M: Table 4
Summary of the method: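 Scintillation proximity read-out of farnesylation, using a biotinylated K Ras B fragment (0.1 mM final) in place of biotin-lamin. Enzyme purified from rat brain; results given as % inhibition.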

[1] = Table 6, ** footnote 0.01 μM (title: 0.01 mM)
[2] = read-out: % inhibition at 1 × 10^-7 M, Table 3, 1 × 10^-7 M
[3] = read-out: % inhibition at 0.1 μM (*), Table 6, * footnote 0.1 μM (title: 0.1 mM)

inhibition at 0.01 µM [1]: 91%
Compound: CCCCSC[C@H](CC1CCCCC1)OCc1ccc(C(=O)N[C@@H](CCSC)C(=O)O)c(-c2ccccc2C)c1 [Example 1312, N-[4-(1-Butylthio-3-cyclohexylprop-2-yloxymethyl)-2-(2-methylphenyl)benzoyl]methionine Lithium Salt]

% inhibition at 1 × 10^-6 M (Table 2, 1 × 10^-6 M): 95%
Compound: CSCC[C@H](NC(=O)c1ccc(CN(C)CCc2ccccc2)cc1-c1ccccc1C)C(=O)O [Example 516]

inhibition at 0.1 µM [2]: 84%
Compound: CSCC[C@H](NC(=O)c1ccc(CSc2nc3ccccc3[nH]2)cc1-c1ccccc1C)C(=O)O [Example 732]

inhibition at 0.1 µM [2]: 87%
Compound: COc1ccc(CSCc2ccc(C(=O)N[C@@H](CCSC)C(=O)O)c(-c3ccccc3C)c2)cc1 [Example 558, N-[4-(4-methoxybenzyl)thiomethyl-2-(2-methylphenyl)benzoyl]methionine, lithium salt]

% inhibition at 1 × 10^-5 M: 69%
Compound: CSCC[C@H](NC(=O)c1ccc(CNc2cc(C)on2)cc1-c1ccccc1)C(=O)O [Example 372]

Compound: CSCC[C@H](NC(=O)c1ccc(OCCC2CCCCC2)cc1-c1ccccc1C)C(=O)O [Example 552, N-[4-(2-cyclohexylethoxy)-2-(2-methylphenyl)benzoyl]methionine, lithium salt]
inhibition at 1 µM: 88%

% inhibition at 1 × 10^-5 M: 46%
Compound: CCN(Cc1ccc(C(=O)N[C@@H](CCSC)C(=O)O)c(-c2ccccc2)c1)Cc1cc([N+](=O)[O-])ccc1O [Example 711]

Compound: CSCC[C@H](NC(=O)c1ccc(COCc2ccnnc2)cc1-c1ccccc1C)C(=O)O [Example 1221, N-[4-(Pyridazin-4-ylmethoxymethyl)-2-(2-methylphenyl)benzoyl]methionine lithium salt]
inhibition at 0.01 µM: 82%

inhibition at 1 µM (Table 2, 1 × 10^-6 M): 85%
Compound: CSCC[C@H](NC(=O)c1ccc(CS(=O)(=O)Cc2ccccc2)cc1-c1ccccc1C)C(=O)O [Example 555, N-[4-benzylsulfonylmethyl-2-(2-methylphenyl)benzoyl]methionine]

% inhibition at 1 × 10^-7 M (Table 3, 1 × 10^-7 M): 80%
Compound: CCSCC(CC1CCCCC1)N(Cc1ccc(C(=O)N[C@@H](CCSC)C(=O)O)c(-c2ccccc2C)c1)CC(C)C (some centres unmarked) [Example 945]

% inhibition at 1 × 10^-5 M: 86%
Compound: CSCC[C@H](NC(=O)c1ccc(CNc2cc[nH]n2)cc1-c1ccccc1)C(=O)O [Example 370]

inhibition at 1 µM (Table 2, 1 × 10^-6 M): 98%
Compound: CSCC[C@H](NC(=O)c1ccc(OCCCOc2ccccc2)cc1-c1ccccc1C)C(=O)O [Example 566, N-[4-(3-phenoxy)propoxy-2-(2-methylphenyl)benzoyl]methionine]

% inhibition at 1 × 10^-8 M: 90%
Compound: CSCC[C@H](NC(=O)c1ccc(CN(CCc2ccccc2)c2cncnc2)cc1-c1ccccc1C)C(=O)O [Example 518]

% inhibition at 1 × 10^-7 M (Table 3, 1 × 10^-7 M): 71%
Compound: CCSC[C@H](CC1CCCCC1)N(Cc1ccc(C(=O)N[C@@H](CCSC)C(=O)O)c(-c2ccccc2C)c1)S(=O)(=O)c1ccccc1 [Example 951]

inhibition at 0.1 µM [2]: 78%
Compound: CSCC[C@H](NC(=O)c1ccc(COCc2ccc(-c3ccc(Cl)cc3)o2)cc1-c1ccccc1C)C(=O)NS(C)(=O)=O [Example 818, N-[4-(5-(4-chlorophenyl)furan-2-ylmethoxymethyl)-2-(2-methylphenyl)benzoyl]methionine methanesulfonimide]

% inhibition at 1 × 10^-6 M (Table 2, 1 × 10^-6 M): 32%
Compound: CSCCC(NC(=O)c1ccc(CNC(CO)c2ccccc2)cc1-c1ccccc1)C(=O)O (centres unmarked) [Example 657]

% inhibition at 1 × 10^-7 M (Table 3, 1 × 10^-7 M): 75%
Compound: CCSC[C@H](CC1CCCCC1)N(Cc1ccc(C(=O)N[C@@H](CCSC)C(=O)O)c(-c2ccccc2C)c1)C(=O)OC(C)(C)C [Example 948]

Compound: CSCC[C@H](NC(=O)c1ccc(COCc2ccc(-c3ccccc3)o2)cc1-c1ccccc1C)C(=O)O [Example 327, [4-(5-phenylfur-2-ylmethyloxymethyl)-2-(2-methylphenyl)benzoyl]methionine lithium salt]
inhibition at 1 µM: 97%

% inhibition at 1 × 10^-7 M (Table 3, 1 × 10^-7 M): 91%
Compound: CSCC[C@H](NC(=O)c1ccc(CN(c2ccccc2)S(=O)(=O)c2ccc(C)cc2)cc1-c1ccccc1C)C(=O)O [Example 770]

% inhibition at 1 × 10^-6 M (Table 2, 1 × 10^-6 M): 99%
Compound: Cc1ccccc1-c1cc(CN(C2CC2)C2(Cc3ccccc3)CCC2)ccc1C(=O)N[C@@H](CCS(C)(=O)=O)C(=O)O [Example 333]

% inhibition at 1 × 10^-6 M (Table 2, 1 × 10^-6 M): 96%
Compound: CSCC[C@H](NC(=O)c1ccc(CN(CCc2ccccc2)C(C)C)cc1-c1ccccc1C)C(=O)O [Example 835]

inhibition at 0.1 µM [3]: 78%
Compound: COc1ccc(CO[C@H](COCc2ccc(C(=O)N[C@@H](CCSC)C(=O)O)c(-c3ccccc3C)c2)CC2CCCCC2)cc1 [Example 1316, N-[4-(3-Cyclohexyl-2-(4-methoxybenzyloxy)prop-1-yloxymethyl)-2-(2-methylphenyl)benzoyl]methionine Lithium Salt]

inhibition at 1 µM (Table 2, 1 × 10^-6 M): 22%
Compound: CSCC[C@H](NC(=O)c1ccc(COCC2CCCO2)cc1-c1ccccc1)C(=O)O (some centres unmarked) [Example 288, [4-(2-tetrahydrofurylmethyloxymethyl)-2-phenylbenzoyl]methionine]

% inhibition at 1 × 10^-6 M (Table 2, 1 × 10^-6 M): 34%
Compound: CSCC[C@H](NC(=O)c1ccc(CNc2ccc(OC(F)(F)F)cc2)cc1-c1ccccc1)C(=O)O [Example 691]

% inhibition at 1 × 10^-6 M (Table 2, 1 × 10^-6 M): 81%
Compound: Cc1ccccc1-c1cc(CCc2ccccc2Oc2ccccc2)ccc1C(=O)N[C@@H](CC[S+](C)[O-])C(=O)O (some centres unmarked) [Example 456]

% inhibition at 1 × 10^-7 M (Table 3, 1 × 10^-7 M): 96%
Compound: CSCC[C@H](NC(=O)c1ccc(CN[C@H](/C=C\CC(C)C)CC2CCCCC2)cc1-c1ccccc1C)C(=O)O [Example 526]

% inhibition at 1 × 10^-6 M (Table 2, 1 × 10^-6 M): 83%
Compound: CSCC[C@H](NC(=O)c1ccc(S(=O)(=O)NCCCn2ccnc2)cc1-c1ccccc1C)C(=O)O [Example 777]

% inhibition at 1 × 10^-5 M: 58%
Compound: CSCC[C@H](NC(=O)c1ccc(NC(=O)Cc2ccccc2[N+](=O)[O-])cc1-c1ccccc1)C(=O)O [Example 757]

Compound: CSCC[C@H](NC(=O)c1ccc(COCC2CCCCC2)cc1-c1ccccc1C)C(=O)O [Example 585, N-[4-(cyclohexylmethoxymethyl)-2-(2-methylphenyl)benzoyl]methionine lithium salt]
inhibition at 0.1 µM (read-out: % inhibition at 1 × 10^-7 M): 96%

% inhibition at 1 × 10^-5 M: 66%
Compound: CSCC[C@H](NC(=O)c1ccc(CNc2nnc(C)s2)cc1-c1ccccc1)C(=O)O [Example 371]

% inhibition at 1 × 10^-6 M (Table 2, 1 × 10^-6 M): 62%
Compound: CSCC[C@H](NC(=O)c1ccc(CNC(C)(C)CC2CCCCC2)cc1-c1ccccc1C)C(=O)O [Example 308]

% inhibition at 1 × 10^-8 M: 96%
Compound: CSCC[C@H](NC(=O)c1ccc(CN(CCC2CCCCC2)S(=O)(=O)c2ccccc2)cc1-c1ccccc1C)C(=O)O [Example 612]

% inhibition at 1 × 10^-5 M: 79%
Compound: CSCC[C@H](NC(=O)c1ccc(CNc2cc(C(C)(C)C)[nH]n2)cc1-c1ccccc1)C(=O)O [Example 381]

% inhibition at 1 × 10^-5 M: 71%
Compound: CSCC[C@H](NC(=O)c1ccc(CNCCCN2CCOCC2)cc1-c1ccccc1)C(=O)O [Example 377]

inhibition at 1 µM (Table 2, 1 × 10^-6 M): 92%
Compound: CSCC[C@H](NC(=O)c1ccc(OCCC23CC4CC(CC(C4)C2)C3)cc1-c1ccccc1C)C(=O)O [Example 553, N-[4-(2-adamantan-1-ylethoxy)-2-(2-methylphenyl)benzoyl]methionine]

inhibition at 0.1 µM [3]: 89%
Compound: CSCC[C@H](NC(=O)c1ccc(COCCc2cccc(F)c2)cc1-c1ccccc1C)C(=O)O [Example 1274, N-[4-(2-(3-fluorophenyl)ethyloxymethyl-2-(2-methylphenyl)benzoyl]methioninelithium salt]

% inhibition at 1 × 10^-6 M (Table 2, 1 × 10^-6 M): 50%
Compound: CSCCC(NC(=O)c1ccc(NC(=O)C2CCCNC2)cc1-c1ccccc1)C(=O)O (centres unmarked) [Example 231]

Compound: CSCC[C@H](NC(=O)c1ccc(CN(CCF)CCC2CCCCC2)cc1-c1ccccc1C)C(=O)O [Example 1094]
% inhibition at 0.01 μM (**) [1]: 96%

% inhibition at 1 × 10^-5 M: 76%
Compound: CSCC[C@H](NC(=O)c1ccc(CNc2ccc3ncccc3c2)cc1-c1ccccc1)C(=O)O [Example 708]

% inhibition at 1 × 10^-6 M (Table 2, 1 × 10^-6 M): 94%
Compound: Cc1ccccc1-c1cc(CN(C)C(C)(C)Cc2ccccc2)ccc1C(=O)N[C@@H](CCS(C)(=O)=O)C(=O)O [Example 313]

% inhibition at 1 × 10^-8 M: 60%
Compound: CSCC[C@H](NC(=O)c1ccc(/C=C/c2ccc(Oc3cccc(Cl)c3)cc2)cc1-c1ccccc1C)C(=O)O [Example 858]
